Holding throughout (assay): Biochemical binding assay (DiscoveRx)
The target of one assay is ALK2 (Acvr1) (Homo sapiens (Human), UniProt Q04771). The procedure: (§1) In addition, biochemical binding assays (DiscoveRx) and in vitro enzyme inhibition assays (LanthaScreen, Life Technologies) were conducted to determine the binding affinity and inhibition activities of CYT-0387 to Type-I BMPR-kinases (ALK2, ALK3, and ALK6) were conducted. Transforming growth factor beta receptor 1 (TGFBR1, ALK5) was used as a control to determine the selectivity to Type-I BMPR-kinases.

The next assay deals with ALK3 (BMPR1a) (Homo sapiens (Human), UniProt P36894). The procedure:
as §1

In a further assay the target is ALK6 (BMPR1B) (Homo sapiens (Human), UniProt O00238). As to the method: as §1

One may read the Kd as a measure of binding affinity in units of concentration. A higher Kd goes with weaker binding.

ALK6 (BMPR1B), sequence (O00238 14-502): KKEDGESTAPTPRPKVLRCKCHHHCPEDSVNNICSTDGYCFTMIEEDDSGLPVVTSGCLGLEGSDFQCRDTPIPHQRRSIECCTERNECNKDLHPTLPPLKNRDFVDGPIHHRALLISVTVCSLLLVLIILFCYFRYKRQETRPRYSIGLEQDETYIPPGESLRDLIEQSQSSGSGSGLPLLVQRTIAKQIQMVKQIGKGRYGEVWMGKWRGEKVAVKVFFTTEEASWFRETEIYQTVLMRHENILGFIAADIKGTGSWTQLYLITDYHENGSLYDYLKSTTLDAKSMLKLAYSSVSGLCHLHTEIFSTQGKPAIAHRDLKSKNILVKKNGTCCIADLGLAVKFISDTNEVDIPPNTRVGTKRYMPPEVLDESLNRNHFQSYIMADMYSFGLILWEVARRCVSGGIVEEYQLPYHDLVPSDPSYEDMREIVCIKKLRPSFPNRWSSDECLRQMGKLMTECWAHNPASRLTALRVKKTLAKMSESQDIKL
ALK2 (Acvr1), sequence (Q04771 21-509): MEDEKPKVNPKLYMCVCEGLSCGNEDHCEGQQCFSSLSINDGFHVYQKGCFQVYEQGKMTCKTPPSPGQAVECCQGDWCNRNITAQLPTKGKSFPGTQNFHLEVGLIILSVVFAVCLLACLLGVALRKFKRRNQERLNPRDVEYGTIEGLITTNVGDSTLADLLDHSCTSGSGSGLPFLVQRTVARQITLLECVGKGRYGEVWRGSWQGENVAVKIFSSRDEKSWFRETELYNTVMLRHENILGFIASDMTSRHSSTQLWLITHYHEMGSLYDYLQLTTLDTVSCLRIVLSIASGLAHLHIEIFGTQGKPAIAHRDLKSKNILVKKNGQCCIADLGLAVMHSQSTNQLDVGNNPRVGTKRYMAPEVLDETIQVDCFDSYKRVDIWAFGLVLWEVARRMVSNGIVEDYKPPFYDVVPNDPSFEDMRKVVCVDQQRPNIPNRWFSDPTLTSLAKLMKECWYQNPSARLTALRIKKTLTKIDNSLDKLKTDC
ALK3 (BMPR1a), sequence (P36894 24-532): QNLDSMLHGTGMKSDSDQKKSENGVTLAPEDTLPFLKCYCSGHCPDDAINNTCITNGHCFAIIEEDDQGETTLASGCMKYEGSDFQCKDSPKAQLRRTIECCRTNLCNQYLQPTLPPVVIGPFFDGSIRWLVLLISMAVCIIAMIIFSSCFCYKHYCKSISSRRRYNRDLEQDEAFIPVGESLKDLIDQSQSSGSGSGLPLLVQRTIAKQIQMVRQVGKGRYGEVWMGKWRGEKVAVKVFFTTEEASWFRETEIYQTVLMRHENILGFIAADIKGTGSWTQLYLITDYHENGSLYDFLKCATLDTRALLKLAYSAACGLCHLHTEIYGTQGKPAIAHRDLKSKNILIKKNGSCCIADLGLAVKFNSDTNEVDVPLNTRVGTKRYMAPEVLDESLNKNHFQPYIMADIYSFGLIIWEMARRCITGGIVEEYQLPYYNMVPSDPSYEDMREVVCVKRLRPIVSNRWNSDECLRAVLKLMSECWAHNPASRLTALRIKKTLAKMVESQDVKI

Turning to `N#CCNC(=O)c1ccc(-c2ccnc(Nc3ccc(N4CCOCC4)cc3)n2)cc1` [CYT-0387, N-(cyanomethyl)-4-(2-(4-morpholinophenylamino)pyrimidin-4-yl)benzamide], the Kd at ALK2 (Acvr1) is 25 nM; at ALK3 (BMPR1a) it was 1000 nM; on ALK6 (BMPR1B), 19 nM.

The values are drawn from patent US9469613B2, “(N-(cyanomethyl)-4-(2-(4-morpholinophenylamino)pyrimidin-4-yl)benzamide” (Gilead Sciences, Inc., priority 2014, dated 2016).
